# Legend:
# [1] = system: Langerin+ cells; test: in vitro cytotoxicity, Annexin-V / 7-AAD staining; format: cell-based; details: 50% DMSO for 3 min, positive control
# Experimental: Liposomes consist mainly of phospholipids and cholesterol. […] As a positive control, cells were treated for 3 min with 50% DMSO. Untreated cells were applied as negative controls. Cells were washed and resuspended in 25 μl buffer (10 mM HEPES, 140 mM NaCl and 2.5 mM CaCl2), pH7.4) containing 1:100 diluted Annexin-V-FITC (Adipogen). Cells were incubated for 10 min in the dark at room temperature. After washing, cells were resuspended in 100 μl buffer containing 1 μl 7-AAD solution (Biolegend) and incubated for 5-10 min in the dark at room temperature. Cells were directly measured without any further washing steps by flow cytometry. […] Annexin-V was detected with a 530/30 filter, 7-AAD with a 695/40 filter and Alexa647 with a 670/14 filter (Attune Nxt, life technologies). […] Langerin targeted liposomes were incubated with cells for extended time periods up to 72 h, and cell toxicity was subsequently analyzed (see FIG. 17).
# Early apoptotic effects were detected with Annexin-V staining that binds translocated phosphatidylserine, whereas late apoptotic cells were stained with 7-AAD a cell impermeable fluorescent intercalator that associates to DNA and undergoes a spectral shift. […] After doublet discrimination, single cells were analyzed for Annexin-V-FITC and 7-AAD staining in a bivariate histogram by dividing the plot in four quadrants. […]
# [2] = target: T1, Langerin ECD (Homo sapiens, UniProt Q9UJ71, V278A); test: 19F R2-filtered NMR reporter displacement assay (Ki determination); format: binding; details: Langerin ECD 50 μM, pH 7.8, 25° C.
# T1 construct: residues 148 to 328; TEV site (C); StreptagII (C); made in house; host or cells: E. coli BL21* (DE3)
# T1 sequence (Q9UJ71 148-328 V278A): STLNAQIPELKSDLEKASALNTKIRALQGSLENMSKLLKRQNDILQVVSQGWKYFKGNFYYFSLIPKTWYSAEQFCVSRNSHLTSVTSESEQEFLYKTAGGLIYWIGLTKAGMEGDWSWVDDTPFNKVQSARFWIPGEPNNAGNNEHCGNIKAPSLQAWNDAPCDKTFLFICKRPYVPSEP
# Experimental: Langerin extracellular domain. Expression and purification were conducted as previously published (Wamhoff, E. C. et al. (19)F Nmr-Guided Design of Glycomimetic Langerin Ligands. ACS Chem Biol, 11, 2407-13 (2016)). Briefly, the trimeric Langerin extracellular domain (ECD) was expressed insolubly in E. coli BL21* (DE3) (Invitrogen). Following enzymatic cell lysis, inclusion bodies were harvested and subsequently solubilized. The sample was centrifuged and the Langerin ECD was refolded overnight via rapid dilution. Next, the sample was dialyzed overnight, centrifuged and purified via mannan-agarose affinity chromatography (Sigma Aldrich). For ^19F R2-filtered NMR and lipid-enzyme-linked lectin assay (Lipid-ELLA) experiments, the buffer was exchanged to 25 mM Tris with 150 mM NaCl and 5 mM CaCl2 at pH 7.8 using 7 kDa size-exclusion desalting columns (Thermo Scientific). For STD NMR experiments, Langerin ECD samples were dialyzed five times for at least 8 h against H2O. Subsequently, the H2O was removed via lyophilization and the residue was stored at −80° C. Prior to STD NMR experiments, the Langerin ECD was dissolved in 25 mM Tris-d11 (Eurisotope) with 100% D2O, 150 mM NaCl and 5 mM CaCl2 at pH 7. The concentration of Langerin ECD was determined via UV spectroscopy (A280, 0.1%=2.45). Purity and monodispersity of Langerin ECD samples were analyzed via SDS PAGE and DLS.
# General remarks. ^19F R2-filtered NMR experiments were conducted on a PremiumCompact 600 MHz spectrometer (Agilent). Spectra were processed in MestReNova and data analysis was performed with OriginPro (Mestrelab Research. Mestrenova. 11.0.2. (2016); OriginLab. Originpro. 9.1. (2015)). Experiments with the Langerin ECD were performed at a receptor concentration of 50 μM in 25 mM Tris with 10% D2O, 150 mM NaCl and 5 mM CaCl2 at pH 7.8 and 25° C. Experiments with the DC-SIGN CRD were performed at a receptor concentration of 50 μM in 25 mM HEPES with 10% D2O, 150 mM NaCl and 5 mM CaCl2 at pH 7.0 and 25° C. TFA served as an internal reference at a concentration of 50 μM. Apparent relaxation rates R2,obs for the reporter ligand were determined using the CPMG pulse sequence as previously published (Wamhoff, E. C. et al. (19)F Nmr-Guided Design of Glycomimetic Langerin Ligands. ACS Chem Biol, 11, 2407-13 (2016): Carr, H. Y. & Purcell, E. M. Effects of Diffusion on Free Precession in Nuclear Magnetic Resonance Experiments. Phys Rev, 94, 630-638 (1954); Meiboom, S. & Gill, D. Modified Spin-Echo Method for Measuring Nuclear Relaxation Times. Rev Sci Instrum 29, 688-691 (1958)).
# Ki determination. Ki values were determined as previously published for Langerin (Wamhoff, E. C. et al. (19)F NMR-Guided Design of Glycomimetic Langerin Ligands. ACS Chem Biol 11, 2407-13 (2016)). Briefly, titration experiments were conducted at a concentration of 0.1 mM of reporter ligand 24 at five competitor concentrations [I]T. Samples were prepared via serial dilution. For the acids GlcNS, GlcNAc-6-OS and GlcNS-6-OS the pH values were monitored and adjusted to 7.8 if necessary.
# [3] = target: T2, DC-SIGN (Homo sapiens, UniProt Q9NNX6); details: literature; cited from earlier work
# T2 sequence (Q9NNX6 1-404): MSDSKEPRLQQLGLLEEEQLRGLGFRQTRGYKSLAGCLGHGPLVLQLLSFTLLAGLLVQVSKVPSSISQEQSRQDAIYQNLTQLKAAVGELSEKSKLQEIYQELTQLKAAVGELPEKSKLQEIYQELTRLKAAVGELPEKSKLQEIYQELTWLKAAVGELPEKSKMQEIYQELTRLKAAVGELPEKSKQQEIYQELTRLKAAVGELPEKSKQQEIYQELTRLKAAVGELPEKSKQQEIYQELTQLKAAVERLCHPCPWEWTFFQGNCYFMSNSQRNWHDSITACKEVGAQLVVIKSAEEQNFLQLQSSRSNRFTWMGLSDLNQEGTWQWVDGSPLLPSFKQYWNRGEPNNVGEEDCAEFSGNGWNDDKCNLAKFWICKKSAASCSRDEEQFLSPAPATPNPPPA
# [4] = target: T3, DC-SIGN CRD (Homo sapiens, UniProt Q9NNX6); test: 19F R2-filtered NMR reporter displacement assay transferred to DC-SIGN; format: binding; details: 19F R2-filtered NMR, DC-SIGN CRD 50 μM, pH 7.0, 25° C.
# T3 construct: residues 205 to 404; TEV site (C); StreptagII (C); made in house; host or cells: E. coli BL21* (DE3)
# T3 sequence (Q9NNX6 250-404): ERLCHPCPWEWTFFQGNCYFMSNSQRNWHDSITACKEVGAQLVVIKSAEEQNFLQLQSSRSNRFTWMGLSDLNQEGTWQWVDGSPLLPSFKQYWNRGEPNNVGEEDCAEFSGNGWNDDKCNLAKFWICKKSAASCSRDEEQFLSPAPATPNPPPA
# Experimental: Langerin and DC-SIGN carbohydrate recognition domain. Expression and purification were conducted as previously published. Briefly, the monomeric ^15N-labeled Langerin and DC-SIGN carbohydrate recognition domains (CRDs) were expressed insolubly in E. coli BL21* (DE3) (Invitrogen). Following enzymatic cell lysis, inclusion bodies were harvested and subsequently solubilized. The sample was centrifuged and the Langerin and DC-SIGN CRDs were refolded overnight via rapid dilution. Next, the sample was dialyzed overnight, centrifuged and purified via StrepTactin affinity chromatography (Iba). After an additional dialysis step overnight, the sample was centrifuged and the buffer was exchanged to 25 mM HEPES with 150 mM NaCl at pH 7.0 using 7 kDa size-exclusion desalting columns (Thermo Scientific) for ^19F R2-filtered and ^15N HSQC NMR experiments. The concentration of Langerin and DC-SIGN CRDs was determined via UV spectroscopy (A280, 0.1%=3.19 and A280, 0.1%=2.98). Purity and monodispersity of Langerin and DC-SIGN CRD samples were analyzed via SDS PAGE and DLS.
# General remarks. ^19F R2-filtered NMR experiments were conducted on a PremiumCompact 600 MHz spectrometer (Agilent). […] Apparent relaxation rates R2,obs for the reporter ligand were determined using the CPMG pulse sequence as previously published (Wamhoff, E. C. et al. (19)F Nmr-Guided Design of Glycomimetic Langerin Ligands. ACS Chem Biol, 11, 2407-13 (2016): Carr, H. Y. & Purcell, E. M. Effects of Diffusion on Free Precession in Nuclear Magnetic Resonance Experiments. Phys Rev, 94, 630-638 (1954); Meiboom, S. & Gill, D. Modified Spin-Echo Method for Measuring Nuclear Relaxation Times. Rev Sci Instrum 29, 688-691 (1958)).
# Assay development for DC-SIGN. […] Briefly, the KD value and the relaxation rate in bound state R2,b were determined at five concentrations [L]T of reporter ligand 24 in three independent titration experiments. […]
# Ki determination. Ki values were determined as previously published for Langerin (Wamhoff, E. C. et al. (19)F NMR-Guided Design of Glycomimetic Langerin Ligands. ACS Chem Biol 11, 2407-13 (2016)). […]
# [5] = system: hLangerin+ Raji cells; test: cell-based binding and internalization assay of functionalized GFP; design: species or system human; details: 4° C., in words
# Experimental: In FIG. 21 (A) the binding and uptake of functionalized GFP at 4° C. and 37° C. was dose-dependently measured by flow cytometry with Raji and Langerin^+ Raji cells. In FIG. 21 (B) GFP and liposomes were incubated for various time points with Langerin^+ Raji cells. Here, FITC-BSA encapsulated liposomes were utilized to compare the FITC fluorescence with the GFP fluorescence.
# Functionalized GFP was then tested in a cell-based binding and internalization assay. Both GlcNTosyl functionalized GFP and unconjugated GFP were incubated with WT or hLangerin^+ Raji cells at 4° C. and at 37° C. for 1 h or 2 h, respectively (see FIG. 21). Targeted GFP specifically bound to Langerin expressing cells and saturated at concentrations above 1 μg/ml (see FIG. 21 (A)). […] GFP fluorescence was slightly elevated compared to the binding assay and also saturated above 1 μg/ml.
Molecule,Ki [2],also measured
C[S+](C)[O-] [DMSO],,dead cells [1]: 98%
"O=S(=O)(O)N[C@H]1C(O)O[C@H](COS(=O)(=O)O)[C@@H](O)[C@@H]1O (stereo partly shown) [GlcNS-6-OS, glucosamine-2-sulfate-6-sulfate]",280 ± 60 µM,
CC(=O)N[C@H]1C(O)O[C@H](CO)[C@@H](O[C@@H]2O[C@H](CO)[C@H](O)[C@H](O)[C@H]2O)[C@@H]1O[C@@H]1O[C@@H](C)[C@@H](O)[C@@H](O)[C@@H]1O (stereo partly shown) [Le^X],,Kd [3]: ~1000 µM
"Unconjugated GFP: Green Fluorescence Protein without ligand, SEQ ID NO: 82",,fluorescence signal [5]: did not show increased fluorescence signals

# Second part, led by results:
Ki [2],Molecule,also measured
4100 ± 700 µM,"CC(=O)N[C@H]1C(O)O[C@H](CO)[C@@H](O)[C@@H]1O (stereo partly shown) [GlcNAc, N-acetyl glucosamine]",
600 ± 100 µM,"CC(=O)N[C@H]1C(O)O[C@H](COS(=O)(=O)O)[C@@H](O)[C@@H]1O (stereo partly shown) [GlcNAc-6-OS, N-acetyl glucosamine-6-sulfate]",
1400 ± 200 µM,"O=S(=O)(O)N[C@H]1C(O)O[C@H](CO)[C@@H](O)[C@@H]1O (stereo partly shown) [GlcNS, glucosamine-2-sulfate]",
21000 ± 4000 µM,OC[C@H]1OC(O)[C@H](O)[C@@H](O)[C@@H]1O (stereo partly shown) [Glc],
4500 ± 500 µM,"O=C[C@@H](O)[C@@H](O)[C@H](O)[C@H](O)CO [Man, mannose]",Ki [4]: 3000 ± 300 µM

# Reference: patent US12290535B2, “Langerin+ cell targeting” (Max-Planck-Gesellschaft zur Förderung der Wissenschaften …, priority 2018, dated 2025)
